Laboratory results taken from patent publication US10780090B2, “Heteroaryl compounds useful as inhibitors of SUMO activating enzyme” (Millennium Pharmaceuticals, Inc., priority 2014, dated 2020).

Molecular target: recombinant human SAE enzyme (Homo sapiens (Human), UniProt Q9UBT2)
Experiment: SAE HTRF enzyme assay
Type: biochemical
Conditions: for inhibition at 0.111 µM: read-out: Percent Inhibition
Summary of the method: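 First, recombinant human SAE (0.11 nM) transfers Sumo-Flag onto Ubc9-GST using 0.5 μM ATP for 105 min at 24° C. Next, EDTA-containing detection buffer with labelled anti-Flag and anti-GST antibodies is added for 2 h. Finally, FRET is quantified and percent inhibition or IC50 derived.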

[1] = SAE inhibition at compound concentration 0.111 μM
[2] = SAE inhibition, class symbols, legend in nM

Sequence of recombinant human SAE enzyme (Q9UBT2 whole entry): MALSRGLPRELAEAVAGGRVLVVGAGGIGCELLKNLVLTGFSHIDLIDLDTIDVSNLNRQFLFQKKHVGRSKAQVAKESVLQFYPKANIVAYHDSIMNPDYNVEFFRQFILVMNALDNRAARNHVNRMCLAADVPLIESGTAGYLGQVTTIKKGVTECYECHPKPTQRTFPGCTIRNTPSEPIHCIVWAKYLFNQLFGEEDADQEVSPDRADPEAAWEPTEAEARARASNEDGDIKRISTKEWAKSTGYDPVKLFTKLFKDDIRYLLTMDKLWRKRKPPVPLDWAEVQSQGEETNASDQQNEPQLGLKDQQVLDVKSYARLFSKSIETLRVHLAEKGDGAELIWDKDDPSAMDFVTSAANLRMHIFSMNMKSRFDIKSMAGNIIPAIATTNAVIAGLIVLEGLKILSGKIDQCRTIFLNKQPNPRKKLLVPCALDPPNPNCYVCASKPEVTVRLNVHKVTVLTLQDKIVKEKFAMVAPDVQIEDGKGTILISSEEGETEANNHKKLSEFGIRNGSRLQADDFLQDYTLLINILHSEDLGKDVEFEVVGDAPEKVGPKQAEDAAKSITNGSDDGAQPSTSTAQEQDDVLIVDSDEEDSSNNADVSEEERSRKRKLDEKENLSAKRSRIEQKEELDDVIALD
Sequence of recombinant human SAE enzyme (Q9UBE0 whole entry partner): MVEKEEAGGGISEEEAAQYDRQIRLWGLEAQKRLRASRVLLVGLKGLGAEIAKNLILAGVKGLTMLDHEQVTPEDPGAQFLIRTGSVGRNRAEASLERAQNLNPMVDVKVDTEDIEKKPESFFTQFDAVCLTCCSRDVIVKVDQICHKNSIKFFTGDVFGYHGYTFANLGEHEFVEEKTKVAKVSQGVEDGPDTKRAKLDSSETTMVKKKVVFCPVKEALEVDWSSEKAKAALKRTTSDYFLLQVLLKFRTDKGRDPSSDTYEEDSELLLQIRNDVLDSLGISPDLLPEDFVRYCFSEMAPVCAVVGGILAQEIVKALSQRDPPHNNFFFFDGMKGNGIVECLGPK

| SMILES | Percent Inhibition (Concentration 0.111 μM) | IC50 (class symbols A/B/C) | Percent Inhibition [1] | IC50 [2] | inhibition at 0.111 µM (Concentration 0.111 μM) |
| --- | --- | --- | --- | --- | --- |
| Cc1sc(C(=O)c2cncnc2N[C@@H]2C[C@H](COS(N)(=O)=O)[C@@H](O)[C@@H]2F)cc1[C@@H]1OCCc2ccccc21 (single isomer, unassigned) [I-271a, [(1R,2R,3R,4R)-4-{([5-({4-[(1R)-3,4-dihydro-1H-isochromen-1-yl]-5-methyl-2-thienyl)carbonyl)pyrimidin-4-yl]amino}-3-fluoro-2-hydroxycyclopentyl]methyl sulfamate or [(1R,2R,3R,4R)-4-{([5-({4-[(1S)-3,4-dihydro-1H-isochromen-l-yl]-5-methyl-2-thienyl}carbonyl)pyrimidin-4-yl]amino}-3-fluoro-2-hydroxycyclopentyl]methyl sulfamate] | 99 | < 10 nM |  |  |  |
| NS(=O)(=O)OC[C@H]1C[C@@H](Nc2ncncc2C(=O)c2ccc([C@@H]3OCCCc4ccc(Cl)cc43)s2)C[C@@H]1O (single isomer, unassigned) [I-343a, [(1R,2S,4R)-4-{[5-({5-[(1R)-8-chloro-1,3,4,5-tetrahydro-2-benzoxepin-1-yl]-2-thienyl}carbonyl)pyrimidin-4-yl]amino}-2-hydroxycyclopentyl]methyl sulfamate or [(1R,2S,4R)-4-{[5-({5-[(1S)-8-chloro-1,3,4,5-tetrahydro-2-benzoxepin-1-yl]-2-thienyl}carbonyl)pyrimidin-4-yl]amino}-2-hydroxycyclopentyl]methyl sulfamate] |  |  | 57% | 10 to 100 nM |  |
| NS(=O)(=O)OC[C@H]1C[C@@H](Nc2ncncc2C(=O)c2cc(CCc3cccc(Cl)c3)cs2)C[C@@H]1O [I-146, [(1R,2S,4R)-4-{[5-({4-[2-(3-chlorophenyl)ethyl]-2-thienyl}carbonyl)pyrimidin-4-yl]amino}-2-hydroxycyclopentyl]methyl sulfamate] |  | < 10 nM |  |  | 94% |
| Cc1sc(C(=O)c2cncnc2N[C@@H]2C[C@H](COS(N)(=O)=O)[C@@H](O)C2)cc1[C@@H]1OCCc2cccnc21 (single isomer, unassigned) [I-285a, [(1R,2S,4R)-4-{[5-({4-[(8S)-5,8-dihydro-6H-pyrano[3,4-b]pyridin-8-yl]-5-methyl-2-thienyl}carbonyl)pyrimidin-4-yl]amino}-2-hydroxycyclopentyl]methyl sulfamate or [(1R,2S,4R)-4-{[5-({4-[(8R)-5,8-dihydro-6H-pyrano[3,4-b]pyridin-8-yl]-5-methyl-2-thienyl}carbonyl)pyrimidin-4-yl]amino}-2-hydroxycyclopentyl]methyl sulfamate] |  |  | 101% | < 10 nM |  |
| CN1Cc2ccc(Cl)cc2[C@@H]1c1csc(C(=O)c2cncnc2N[C@@H]2C[C@H](COS(N)(=O)=O)[C@@H](O)C2)c1 (single isomer, unassigned) [I-265a, [(1R,2S,4R)-4-{[5-({4-[(1R)-6-chloro-2-methyl-2,3-dihydro-1H-isoindol-1-yl]-2-thienyl}carbonyl)pyrimidin-4-yl]amino}-2-hydroxycyclopentyl]methyl sulfamate or [(1R,2S,4R)-4-{[5-({4-[(1S)-6-chloro-2-methyl-2,3-dihydro-1H-isoindol-1-yl]-2-thienyl}carbonyl)pyrimidin-4-yl]amino}-2-hydroxycyclopentyl]methyl sulfamate] | 99 | < 10 nM |  |  |  |
| NC(c1cccc(Br)n1)c1cc(C(=O)c2cncnc2NC2CC(O)C(COS(N)(=O)=O)C2)sc1Cl (mixture of isomers) [I-18, [(1R,2S,4R)-4-{[5-({4-[(R)-amino(6-bromopyridin-2-yl)methyl]-5-chloro-2-thienyl}carbonyl)pyrimidin-4-yl]amino}-2-hydroxycyclopentyl]methyl sulfamate and [(1R,2S,4R)-4-{[5-({4-[(S)-amino(6-bromopyridin-2-yl)methyl]-5-chloro-2-thienyl}carbonyl)pyrimidin-4-yl]amino}-2-hydroxycyclopentyl]methyl sulfamate] | 99 | < 10 nM |  |  |  |
| CN[C@H](c1cccc(Cl)c1)c1csc(C(=O)c2cncnc2N[C@@H]2C[C@H](COS(N)(=O)=O)[C@@H](O)C2)c1 (single isomer, unassigned) [I-47a, [(1R,2S,4R)-4-{[5-({4-[(R)-(3-chlorophenyl)(methylamino)methyl]-2-thienyl}carbonyl)pyrimidin-4-yl]amino}-2-hydroxycyclopentyl]methyl sulfamate or [(1R,2S,4R)-4-{[5-({4-[(S)-(3-chlorophenyl)(methylamino)methyl]-2-thienyl}carbonyl)pyrimidin-4-yl]amino}-2-hydroxycyclopentyl]methyl sulfamate] | 99 | < 10 nM |  |  |  |
| N[C@@H](c1cccc(Cl)c1)c1cc(C(=O)c2cncnc2N[C@@H]2C[C@H](COS(N)(=O)=O)[C@@H](O)[C@H]2O)sc1Cl (single isomer, unassigned) [I-14a, [(1R,2R,3S,4R)-4-{[5-({4-[(S)-Amino(3-chlorophenyl)methyl]-5-chloro-2-thienyl)carbonyl)pyrimidin-4-yl]amino}-2,3-dihydroxycyclopentyl]methyl sulfamate or [(1R,2R,3S,4R)-4-{[5-({4-[(R)-Amino(3-chlorophenyl)methyl]-5-chloro-2-thienyl}carbonyl)pyrimidin-4-yl]amino}-2,3-dihydroxycyclopentyl]methyl sulfamate] | 101 | < 10 nM |  |  |  |
| Cc1sc(C(=O)c2cncnc2N[C@@H]2C[C@H](COS(N)(=O)=O)[C@@H](O)[C@H]2O)cc1[C@@H]1OCCc2ccccc21 (single isomer, unassigned) [I-250a, [(1R,2R,3S,4R)-4-{[5-({4-[(1R)-3,4-dihydro-1H-isochromen-1-yl]-5-methyl-2-thienyl}carbonyl)pyrimidin-4-yl]amino}-2,3-dihydroxycyclopentyl]methyl sulfamate or [(1R,2R,3S,4R)-4-{[5-({4-[(1S)-3,4-dihydro-1H-isochromen-1-yl]-5-methyl-2-thienyl}carbonyl)pyrimidin-4-yl]amino}-2,3-dihydroxycyclopentyl]methyl sulfamate] | 97 | < 10 nM |  |  |  |
| NS(=O)(=O)OC[C@H]1C[C@@H](Nc2ncncc2C(=O)c2cc([C@@H]3OCCc4ccc(F)cc43)cs2)C[C@@H]1O (single isomer, unassigned) [I-267, [(1R,2S,4R)-4-{[5-({4-[(1R)-7-Fluoro-3,4-dihydro-1H-isochromen-1-yl]-2-thienyl}carbonyl)pyrimidin-4-yl]amino}-2-hydroxycyclopentyl]methyl sulfamate or [(1R,2S,4R)-4-{[5-({4-[(1S)-7-Fluoro-3,4-dihydro-1H-isochromen-1-yl]-2-thienyl}carbonyl)pyrimidin-4-yl]amino}-2-hydroxycyclopentyl]methyl sulfamate] | 97 | < 10 nM |  |  |  |
| NS(=O)(=O)OC[C@H]1C[C@@H](Nc2ncncc2C(=O)c2cc(Cc3cccc(Cl)c3)c(CO)s2)C[C@@H]1O [I-35, {(1R,2S,4R)-4-[(5-{[4-(3-chlorobenzyl)-5-(hydroxymethyl)-2-thienyl]carbonyl}pyrimidin-4-yl)amino]-2-hydroxycyclopentyl}methyl sulfamate] |  | < 10 nM |  |  | 98% |
